Test results published in US20140357512A1, “HISTONE DEACETYLASE (HDAC) BIOMARKERS IN MULTIPLE MYELOMA” (priority 2013, published 2014).

Test system: human myeloma cell line MM.1S
Experiment: SILAC acetylated-lysine peptide profiling, HDAC inhibitor vs DMSO (light/heavy ratio)
Assay type: cell-based
From the text: An embodiment of the invention comprises utilizing the SILAC method in order to quantitate changes in protein expression between two or more populations of cells. The SILAC method is a technique based on mass spectrometry that detects differences in protein abundance among samples using non-radioactive isotopic labeling. The SILAC method is known in the art, and described in detail in Ong et al., “Stable Isotope Labeling by Amino Acids in Cell Culture, SILAC, as a Simple and Accurate Approach to Expression Proteomics”, Molecular & Cellular Proteomics, vol. 1, pp. 376-386 (2002), which is incorporated herein by reference in its entirety.
Briefly, the SILAC method involves growing two populations of cells in cell culture. The first population of cells is grown in growth media containing normal amino acids (“normal media”). The second population of cells is grown in media lacking a standard essential amino acid (such as lysine), but is then supplemented with a non-radioactive, isotopically labeled form of that essential amino acid (such as lysine labeled with ^13C atoms, rather than normal ^12C atoms), which is called “heavy media”. When the two populations of cells are each growing in the medium, they incorporate the amino acids into all of their proteins. The growth of cells maintained in the heavy media is no different from that in normal media. All peptides containing the heavy amino acids are heavier than their normal counterparts. The cells from each of the two populations of cells are lysed. The lysates from each of the two cell populations are then combined. The combined cell lysates are then analyzed by mass spectrometry. Pairs of chemically identical peptides of different stable isotope composition can be differentiated in a mass spectrometer due to their difference in mass. The ratio of peak intensities in the mass spectrum for such peptide pairs reflects the abundance ratio for the two proteins.
This example describes SILAC studies that were performed to compare the effects of three different HDAC inhibitors (Compound A, Compound B, and tubastatin A) to a control on a human multiple myeloma cell line. The HDAC inhibitors were also compared amongst themselves to determine differences in their effects.
A human myeloma cell line MM.1S was grown using either ^12C (light) or ^13C (heavy) lysine containing culture medium. The “heavy” cells were treated with DMSO as the control, and the “light” cells were treated with a single HDAC inhibitor at 37° C. for 6 hours. The heavy and light cells were lysed, and the lysates were mixed in 1:1 ratio and digested with the protease trypsin. The acetylated lysine containing peptides (due to the action of the HDAC inhibitor) in the digested peptide pool were captured by a non-specific anti-acetylated lysine antibody cocktail (the antibodies identify both light and heavy acetylated peptides), and subjected to mass spectrometry analysis in order to identify thousands of individual peptides.
Thousands of peptides were identified in pairs (^12C and ^13C) due to their known mass differences. The amino acid sequence and quantitative ratio (Light/Heavy) of a given peptide in two differentially treated cell lysates were then determined and annotated with their possible protein (gene) sources.
As stated above, three HDAC inhibitors (Compound A, Compound B, and Tubastatin A) were used. Thus, the SILAC method was performed three times, with a different HDAC inhibitor compared to a control each time. Accordingly, there are three pairs of quantitative data in the table below, i.e., Compound A:DMSO, Compound B:DMSO, and Tubastatin A:DMSO. A cut-off of 1.30 fold of change (increase or decrease) was then used to determine “changed” or “+” in the table, and any peptides with a fold of change less than 1.3 fold were determined to be “unchanged” or “0” in the table. Those peptides that were not identified were marked as “NA” in the table. […]

O=C(CCCCCCNC(=O)c1cnc(N(c2ccccc2)c2ccccc2)nc1)NO [Compound A, 2-(diphenylamino)-N-(7-(hydroxyamino)-7-oxoheptyl)pyrimidine-5-carboxamide]
light to heavy ratio (L/H ratio) of acetylated peptide GAGTDEK(ac)TLTR (SEQ ID NO: 621) (Annexin A6 [620], gene ANXA6, inhibitor:DMSO): 0.48 log 2 | light to heavy ratio (L/H ratio), log 2 scale, acetylated peptide EFIEK(ac)YDK (SEQ ID NO: 779) (Annexin A6 [644], gene ANXA6, drug:DMSO): 1.00 | light to heavy ratio (L/H ratio) of acetylated peptide DDNGK(ac)PYVLPSVR (SEQ ID NO: 579) (Aspartate aminotransferase mitochondrial [73], gene GOT2, inhibitor:DMSO): 0.43 log 2 | light to heavy ratio (L/H ratio) of acetylated peptide LMEK(ac)EINGSK (SEQ ID NO: 517) (Atlastin-3 [309], gene ATL3, inhibitor:DMSO): −0.56 log 2 | light to heavy ratio (L/H ratio) of acetylated peptide ELK(ac)EIQYGIR (SEQ ID NO: 540) (Branched-chain-amino-acid aminotransferase [337], gene BCAT2, inhibitor:DMSO): 0.39 log 2 | light to heavy ratio (L/H ratio), log 2 scale, acetylated peptide ESCSK(ac)[…] (SEQ ID NO: 780) (Bromodomain and PHD finger-containing protein 3 [105], gene BRPF3, drug:DMSO): 1.00 | L/H ratio of acetylated peptide FYGDEEK(ac)[…] (SEQ ID NO: 25) (CALR [62], log 2 scale, drug vs DMSO): 0.00 | light to heavy ratio (L/H ratio) of acetylated peptide LQVLDPVPK(ac)PVIK (SEQ ID NO: 539) (CD48 antigen [133], gene CD48, inhibitor:DMSO): 0.39 log 2 | light to heavy ratio (L/H ratio) of acetylated peptide AGLQVYNK(ac)CWK (SEQ ID NO: 260) (CD59 glycoprotein [63], CD59, drug:DMSO): 0.41 log 2 | L/H ratio of acetylated peptide […](ac)R (SEQ ID NO: 26) (CLTC [637], log 2 scale, drug vs DMSO): 0.00 | L/H ratio of acetylated peptide FK(ac)ESFAEMNR (SEQ ID NO: 1) (COX4I1 [87], log 2 scale, drug vs DMSO): 0.00 | L/H ratio of acetylated peptide […](ac)QLCTIPR (SEQ ID NO: 27) (CREBBP [1216], log 2 scale, drug vs DMSO): 0.00 | L/H ratio of acetylated peptide TNK(ac)NK(ac)SSISR (SEQ ID NO: 13) (CREBBP [1595:1597], log 2 scale, drug vs DMSO): 1.00 | L/H ratio of acetylated peptide ALK(ac)DLYCHK (SEQ ID NO: 28) (CREM [240], log 2 scale, drug vs DMSO): 0.00 | L/H ratio of acetylated peptide LYCPK(ac)CMDVYTPK (SEQ ID NO: 29) (CSNK2B [139], log 2 scale, drug vs DMSO): 0.00 | light to heavy ratio (L/H ratio) of acetylated peptide NSFDCFK(ac)K (SEQ ID NO: 605) (Calcium-binding mitochondrial carrier protein Aralar2 [379], gene SLC25A13, inhibitor:DMSO): 0.46 log 2 | light to heavy ratio (L/H ratio) of acetylated peptide FVLSSGK(ac)FYGDEEKDK (SEQ ID NO: 281) (Calreticulin [55], CALR, drug:DMSO): 0.58 log 2 | light to heavy ratio (L/H ratio) of acetylated peptide VHVIFNYK(ac)GK (SEQ ID NO: 273) (Calreticulin [151], CALR, drug:DMSO): 0.48 log 2 | light to heavy ratio (L/H ratio) of acetylated peptide NVLINK(ac)DIR (SEQ ID NO: 257) (Calreticulin [159], CALR, drug:DMSO): 0.39 log 2 | light to heavy ratio (L/H ratio) of acetylated peptide TCDLVGEK(ac)GK (SEQ ID NO: 289) (Cation-dependent mannose-6-phosphate receptor [38], M6PR, drug:DMSO): 0.65 log 2 | light to heavy ratio (L/H ratio) of acetylated peptide […](ac)GLLK (SEQ ID NO: 569) (Chloride intracellular channel protein 1 [131], gene CLIC1, inhibitor:DMSO): 0.41 log 2 | light to heavy ratio (L/H ratio), log 2 scale, acetylated peptide GFSIPECQK(ac)LLPK (SEQ ID NO: 783) (Citrate synthase mitochondrial [103], gene CS, drug:DMSO): 1.00 | light to heavy ratio (L/H ratio) of acetylated peptide […](ac)LR (SEQ ID NO: 566) (Citrate synthase mitochondrial [327], gene CS, inhibitor:DMSO): 0.41 log 2 | light to heavy ratio (L/H ratio) of acetylated peptide EFALK(ac)HLPNDPMFK (SEQ ID NO: 583) (Citrate synthase mitochondrial [366], gene CS, inhibitor:DMSO): 0.43 log 2 | light to heavy ratio (L/H ratio) of acetylated peptide SMSTEGLMK(ac)FVDSK (SEQ ID NO: 330) (Citrate synthase mitochondrial [459], CS, drug:DMSO): 0.00 log 2 | light to heavy ratio (L/H ratio) of acetylated peptide VASK(ac)QLEEEDGSR (SEQ ID NO: 591) (Coatomer subunit gamma [238], gene COPG, inhibitor:DMSO): 0.44 log 2 | light to heavy ratio (L/H ratio), log 2 scale, acetylated peptide MIYASSK(ac)DAIKK (SEQ ID NO: 763) (Cofilin-1 [121], gene CFL1, drug:DMSO): 0.93 | light to heavy ratio (L/H ratio) of acetylated peptide AAEEVEAK(ac)FK (SEQ ID NO: 328) (Coiled-coil-helix-coiled-coil-helix domain-containing protein 3 mitochondrial [173], CHCHD3, drug:DMSO): 0.00 log 2 | light to heavy ratio (L/H ratio) of acetylated peptide ASEIGEK(ac)YR (SEQ ID NO: 586) (Conserved hypothetical protein [484], gene KIAA0947, inhibitor:DMSO): 0.44 log 2 | light to heavy ratio (L/H ratio) of acetylated peptide DHCVAHK(ac)LFNNLK (SEQ ID NO: 608) (Cytochrome b-c1 complex subunit 6 mitochondrial [85], gene UQCRH, inhibitor:DMSO): 0.46 log 2 | light to heavy ratio (L/H ratio) of acetylated peptide LFDYFPK(ac)PYPNSEAAR (SEQ ID NO: 548) (Cytochrome c1 heme protein mitochondrial [177], gene CYC1, inhibitor:DMSO): 0.39 log 2 | light to heavy ratio (L/H ratio) of acetylated peptide YFDEK(ac)IAK (SEQ ID NO: 563) (D-beta-hydroxybutyrate dehydrogenase mitochondrial [280], gene BDH1, inhibitor:DMSO): 0.41 log 2 | L/H ratio of acetylated peptide FK(ac)[…] (SEQ ID NO: 30) (DAZAP1 [59], log 2 scale, drug vs DMSO): 0.00 | L/H ratio of acetylated peptide APTIVGK(ac)SSLNPILFR (SEQ ID NO: 31) (DDOST [189], log 2 scale, drug vs DMSO): 0.00 | L/H ratio of acetylated peptide FGNPGEK(ac)LVK (SEQ ID NO: 34) (DDX5 [40], log 2 scale, drug vs DMSO): 0.00
